Data from patent publication EP0528997B1, “DISULFIDE DERIVATIVES OF MERCAPTOACYLAMINO ACIDS” (SCHERING CORPORATION, priority 1990, dated 1991).

Tests used:
[1] = tested on: DOCA salt hypertension in the rat; assay: DOCA salt hypertension model (antihypertensive effect); assay type: in vivo, Sprague Dawley rats; conditions: drop in blood pressure
[2] = tested on: spontaneously hypertensive rats (SHR); assay: ANF potentiation procedure (antihypertensive effect in combination with ANF); assay type: in vivo; conditions: drop in blood pressure; 30 mg/kg sc
Experimental: The antihypertensive effect of mercaptoacylamino acid disulfide derivatives in combination with ANF can be determined according to the following procedures:
Male spontaneously hypertensive rats (SHR), 16-18 weeks old, 270-350 g, are anesthetized with ether and the abdominal aorta is cannulated through the tail artery. The animals are then placed into restrainers to recover from anesthesia (in less than 10 min.) and remain inside throughout the experiments. Through a pressure transducer (Gould P23 series) analog blood pressure signals are registered on a Beckman 612 recorder. A Buxco digital computer is used to obtain mean arterial pressures. Patency of the arterial cannula is maintained with a continuous infusion of 5% dextrose at 0.2 ml/hr. Animals are allowed a 90-min equilibration period. The animals first undergo a challenge with an ANF such as atriopeptin II (AP II) or AP28 30 »g/kg iv and at the end of 60 min. are treated with drug vehicle or a mercapto-acylamino acid subcutaneously. A second ANF challenge is administered 15 min. later and blood pressure is monitored for the next 90 min.

Structure (SMILES) | DOCA Salt ΔBP (mmHg) ([1]; 3 mg/kg po) | ANF Potentiation ΔBP (mmHg) [2] | DOCA Salt ΔBP (mmHg) ([1]; 1 mg/kg po) | DOCA Salt ΔBP (mmHg) ([1]; 10 mg/kg po) | DOCA Salt ΔBP (mmHg) ([1]; 0.1 mg/kg po)
CCOC(=O)[C@H](CCSC)NC(=O)[C@@H](CSSC[C@@H](Cc1ccccc1C)C(=O)N[C@@H](CCSC)C(=O)OCC)Cc1ccccc1C [Example 1, 1,1'-[DITHIOBIS-[2(S)-(2-METHYLBENZYL)-1-OXO-3,1-PROPANEDIYL]]BIS-(S)-METHIONINE DIETHYL ESTER] | 15 mmHg | 0 mmHg | – | – | –
CSCC[C@H](NC(=O)[C@@H](CSSC[C@@H](Cc1ccccc1C)C(=O)N[C@@H](CCSC)C(=O)O)Cc1ccccc1C)C(=O)O [Example 2, 1,1'-[DITHIOBIS-[2(S)-(2-METHYLBENZYL)-1-OXO-3,1-PROPANEDIYL]]BIS-(S)-METHIONINE] | – | 27 mmHg | 41 mmHg | 57 mmHg | –
CCOC(=O)[C@@H](O)CNC(=O)[C@@H](CSSC[C@@H](Cc1ccccc1C)C(=O)NC[C@H](O)C(=O)OCC)Cc1ccccc1C [Example 3, 1,1'-[DITHIOBIS-[2(S)-(2-METHYLBENZYL)-1-OXO-3,1-PROPANEDIYL]]BIS-(S)-ISOSERINE DIETHYL ESTER] | – | 29 mmHg | 30 mmHg | 44 mmHg | 31 mmHg
Cc1ccccc1C[C@H](CSSC[C@@H](Cc1ccccc1C)C(=O)NC[C@H](O)C(=O)O)C(=O)NC[C@H](O)C(=O)O [Example 4, 1,1'-[DITHIOBIS-[2(S)-(2-METHYLBENZYL)-1-OXO-3,1-PROPANEDIYL]]BIS-(S)-ISOSERINE] | – | 24 mmHg | 21 mmHg | 31 mmHg | 0 mmHg
